{"source": "patent EP0314302A2", "about": "“Herbicidal o-carbomethoxy-sulfonylureas” (E.I. DU PONT DE NEMOURS AND COMPANY, priority 1987, dated 1989)", "key": {"[1]": {"system": "coffee", "experiment": "Test 6 effect of surfactants, postemergence", "type": "in vivo, Coffea spp", "conditions": "addition of a surfactant", "source_text": "The object of this test was to evaluate the effect of surfactants and plant growth stage on the efficacy of the compound of this invention. Plastic windowsill pots were filled with planting medium and seeded with yellow nutsedge (Cyperus esculentus), large crabgrass (Digitaria sanguinalis), goosegrass (Elsusine indica), bermudagrass (Cynodon dactylon), broadleaf signalgrass (Brachiara platyphalla), smooth crabgrass (Digitaria ischaemum), guinea grass (Panicum maximum) and johnsongrass (Sorghum halapense). Coffee (Coffea spp) plants with 2 to 4 branches were included in one test.\nPlants were treated postemergence with Compound I formulated with different surfactants or a non-phytotoxic carrier made up of acetone-humectant-water-surfactant."}, "[2]": {"system": "Bermudagrass", "experiment": "Test 11 windowsill flats, postemergence", "type": "in vivo, Cynodon dactylon", "conditions": "Postemergence 32 g/ha, 0.25% X-77 surfactant, scale 0-100", "protocol": "(§1) Budded citrus seedlings were planted in 30-liter plastic pots which were also seeded with sandbur, guineagrass, narrowleaf panicum, common ragweed, yellow nutsedge, purple nutsedge and bindweed. Compound I was applied preemergence and postemergence to the weeds. Treatments were sprayed to simulate the trunk-to-trunk herbicide application method used in some citrus groves. The compound was also applied postemergence to weeds grown in windowsill flats. The flats were filled with planting medium and seeded with morningglory (Ipomoea spp.). purple nutsedge (Cyperus rotundus), pigweed (Amaranthus spp.), bindweed (Convolvulus spp.), narrowleaf panicum (Panicum maximum), common ragweed (Ambrosia artemisiifolia), sandbur (Cenchrus echinatus), itchgrass (Rottboellia exaltata), johnsongrass (Sorghum halepense), guineagrass (Panicum maximum), smooth crabgrass (Digitaria ischaemum), broadleaf signalgrass (Brachiaria platyphylla), bermudagrass (Cynodon dactylon), goosegrass (Eleusine indica), large crabgrass (Digitaria sanguinalis) and yellow nutsedge (Cyperus esculentus).\n(§2) The compound was formulated and sprayed with 0.25% X-77 surfactant in water. Plants were visually rated 21 and 29 days after treatment and compared with appropriate controls. Injury ratings were based on the scale of 0 to 100, where 0 indicates no effect, 20 indicates minimum effect and 100 indicates complete control. […]"}, "[3]": {"system": "Large Crabgrass", "experiment": "Test 11 windowsill flats, postemergence", "type": "in vivo, Digitaria sanguinalis", "conditions": "Postemergence 32 g/ha, 0.25% X-77 surfactant, scale 0-100", "protocol": "as §1, §2"}, "[4]": {"system": "Sandbur", "experiment": "Test 9 postemergence", "type": "in vivo, Cenchrus echinatus", "conditions": "scale 0-100", "protocol": "Plastic windowsill pots containing planting medium were seeded with bahiagrass, bindweed (Convolvulus spp), guinea grass (Panicum maximum), large crabgrass (Digitaria sanguinalis) and pigweed (Amaranthus spp). Individual 15-cm plastic pots contained sandbur (Cenchrus echinatus), Mikania cordata, Boston fern (Nephrolepis exalata), quackgrass (Agropyron repens), elephantgrass (Pennisetum purpureum) and sowthistle (Sonchus spp) plants.\nPlants were treated postemergence with Compound I formulated in a non-phytotoxic solvent. Plants were visually rated 22 days after treatment (DAT). Injury and weed control ratings were based on the scale of 0 to 100 where 0 = no effect, 20 = minimal control and 100 = complete control."}, "[5]": {"system": "Sour Lemon", "experiment": "Test 12 over-the-top application, postemergence", "type": "in vivo", "conditions": "26 days after treatment, scale 0-100", "source_text": "The object of this test was to evaluate the safety of sour lemon to the over-the-top application of Compound I and control of lantana (Lantana camara) and trumpetcreeper (Campsis radicans). Plants were sprayed postemergence with Compound I formulated in a non-phytotoxic solvent. Treated plants were visually rated 26 days after treatment and compared with appropriate controls. Injury ratings were based on the scale of 0 to 100, where 0 indicates no effect, 20 indicates minimal effect and 100 indicates complete control."}, "[6]": {"system": "Avena fatua", "experiment": "Test 1 greenhouse, postemergence", "type": "in vivo", "conditions": "21 days, scale 0-100", "protocol": "(§3) Seeds of Bromus tectorum, Kochia scoparia, Salsoa kali, Avena fatua, Convolvulus arvensis, Secale cereale, Setaria viridis and Triticum aestivum were placed in 26-cm plastic pans containing a pasteurized sandy loam soil (pH 6.5, 1% organic matter). Plantings were maintained in the greenhouse for 18-28 days at which time the postemergence treatments were applied using a nonphytotoxic solvent as the carrier for the herbicide. The preemergence segment of the test was seeded immediately before herbicide application using Bromus tectorum, Kochia scoparia, Polygonum convolvulus, Salsoa kali, Avena fatua, Convolvulus arvensis, Secale cereale, Setaria viridis, Aegilops cylindrica, Amaranthus retroflexus, Chenopodium album, Hordeum vulgare, Triticum aestivum, Sorghum bicolor, and Zea mays. All treatments were maintained in the greenhouse for an additional 21 days at which time visual assessment of weed control was determined using a scale of 0 to 100 for each species where 0 represented no control and 100 represented complete control."}, "[7]": {"system": "Secale cereale", "experiment": "Test 1 greenhouse, postemergence", "type": "in vivo", "conditions": "21 days, scale 0-100", "protocol": "as §3"}, "[8]": {"system": "Bromus tectorum", "experiment": "Test 1 greenhouse, postemergence", "type": "in vivo", "conditions": "21 days, scale 0-100", "protocol": "as §3"}, "[9]": {"system": "Triticum aestivum", "experiment": "Test 1 greenhouse, postemergence", "type": "in vivo", "conditions": "21 days, scale 0-100", "protocol": "as §3"}, "[10]": {"system": "Dandelion", "experiment": "Test 7 postemergence", "type": "in vivo, Taraxacum spp", "conditions": "scale 0-100", "protocol": "(§4) Individual 11.4-cm plastic pots filled with planting medium were seeded with rape, wild radish (Raphanus raphanistruna). tansy mustard (Descurainia pinnata), ball mustard (Neslia paniculata), black mustard (Brassica nigra), yellow mustard, brown mustard, lentils, safflower, flax, sunflower, peanut, vetch, alfalfa, field bean, pea, violet (Viola spp), Kochia (Kochia spp), Russian thistle (Salsola spp), Matricaria spp, groundsel (Senecio spp), shepherdspurse (Capsella bursa-pastoris), nightshade (Solanum spp), sowthistle (Sonchus spp), sugar beet, wheat, \"Bonanza\" barley and \"Morex\" barley, Kentucky bluegrass (Poa pratensis), red clover (Trifolium pratense), dandelion (Taraxacum spp) and buckhorn plantain (Plantago lanceolata).\n(§5) Plants were treated postemergence with the compound formulated with a non-phytotoxic carrier. Plants were visually rated 18 days after treatment (DAT). Response ratings were based on the scale of 0 to 100 where 0 = no effect, 20 = minimal injury and 100 = complete control."}, "[11]": {"system": "Common ragweed", "experiment": "Test 11 citrus pots, postemergence to the weeds", "type": "in vivo, Ambrosia artemisiifolia", "conditions": "Postemergence 32 g/ha, 0.25% X-77 surfactant, scale 0-100", "protocol": "as §1, §2"}, "[12]": {"system": "Itchgrass", "experiment": "Test 11 windowsill flats, postemergence", "type": "in vivo, Rottboellia exaltata", "conditions": "Postemergence 32 g/ha, 0.25% X-77 surfactant, scale 0-100", "protocol": "as §1, §2"}, "[13]": {"system": "Tansy mustard", "experiment": "Test 7 postemergence", "type": "in vivo, Descurainia pinnata", "conditions": "scale 0-100", "protocol": "as §4, §5"}}, "data": [{"smiles": "COC(=O)c1cccnc1S(=O)(=O)NC(=O)Nc1nc(OC)cc(OC)n1", "note": "[Compound I, 2-[[(4,6-dimethoxypyrimidin-2-yl)aminocarbonyl]aminosulfonyl]-3-pyridinecarboxylic acid, methyl ester]", "values": [{"measurement": "safety to coffee", "setting": "[1]", "value": "maintaining safety to coffee"}, {"measurement": "Injury ratings", "setting": "[2]", "value": 20}, {"measurement": "Injury ratings", "setting": "[3]", "value": 80}, {"measurement": "Plant Injury Rating 22 DAT", "setting": "[4]; 8 g/ha", "value": 100}, {"measurement": "Plant Injury Rating 22 DAT", "setting": "[4]; 16 g/ha", "value": 100}, {"measurement": "Plant Injury Rating 22 DAT", "setting": "[4]; 32 g/ha", "value": 100}, {"measurement": "Injury ratings", "setting": "[5]; 8 g/ha", "value": 20}, {"measurement": "Injury ratings", "setting": "[5]; 16 g/ha", "value": 50}, {"measurement": "Injury ratings", "setting": "[5]; 32 g/ha", "value": 70}, {"measurement": "visual assessment of weed control", "setting": "[6]; 4 g/ha", "value": 80}, {"measurement": "visual assessment of weed control", "setting": "[6]; 8 g/ha", "value": 80}, {"measurement": "visual assessment of weed control", "setting": "[6]; 16 g/ha", "value": 100}, {"measurement": "visual assessment of weed control", "setting": "[6]; 32 g/ha", "value": 100}, {"measurement": "visual assessment of weed control", "setting": "[6]; 64 g/ha", "value": 100}, {"measurement": "visual assessment of weed control", "setting": "[6]; 125 g/ha", "value": 100}, {"measurement": "visual assessment of weed control", "setting": "[7]; 4 g/ha", "value": 70}, {"measurement": "visual assessment of weed control", "setting": "[7]; 8 g/ha", "value": 100}, {"measurement": "visual assessment of weed control", "setting": "[7]; 16 g/ha", "value": 100}, {"measurement": "visual assessment of weed control", "setting": "[7]; 32 g/ha", "value": 100}, {"measurement": "visual assessment of weed control", "setting": "[7]; 64 g/ha", "value": 100}, {"measurement": "visual assessment of weed control", "setting": "[7]; 125 g/ha", "value": 100}, {"measurement": "visual assessment of weed control", "setting": "[8]; 4 g/ha", "value": 100}, {"measurement": "visual assessment of weed control", "setting": "[8]; 8 g/ha", "value": 100}, {"measurement": "visual assessment of weed control", "setting": "[8]; 16 g/ha", "value": 100}, {"measurement": "visual assessment of weed control", "setting": "[8]; 32 g/ha", "value": 100}, {"measurement": "visual assessment of weed control", "setting": "[8]; 64 g/ha", "value": 100}, {"measurement": "visual assessment of weed control", "setting": "[8]; 125 g/ha", "value": 100}, {"measurement": "visual assessment of weed control", "setting": "[9]; 4 g/ha", "value": 90}, {"measurement": "visual assessment of weed control", "setting": "[9]; 8 g/ha", "value": 100}, {"measurement": "visual assessment of weed control", "setting": "[9]; 16 g/ha", "value": 100}, {"measurement": "visual assessment of weed control", "setting": "[9]; 32 g/ha", "value": 100}, {"measurement": "visual assessment of weed control", "setting": "[9]; 64 g/ha", "value": 100}, {"measurement": "visual assessment of weed control", "setting": "[9]; 125 g/ha", "value": 100}, {"measurement": "Plant Injury Rating 18 DAT", "setting": "[10]; 16 g/ha", "value": 100}, {"measurement": "Plant Injury Rating 18 DAT", "setting": "[10]; 32 g/ha", "value": 100}, {"measurement": "Injury ratings", "setting": "[11]", "value": 0}, {"measurement": "Injury ratings", "setting": "[12]", "value": 100}, {"measurement": "Plant Injury Rating 18 DAT", "setting": "[13]; 16 g/ha", "value": 100}, {"measurement": "Plant Injury Rating 18 DAT", "setting": "[13]; 32 g/ha", "value": 100}]}]}
